Results taken from patent US20120282187A1 (BOEHRINGER INGELHEIM INTERNATIONAL GMBH, priority 2008, published 2012).
Where two headings read alike, the source gives them in different places. Marks after values point to notes of the source that are not given here.

Test system: patients with atrial fibrillation
[1] = PETRO-Ex, including bleeding and thrombotic events

SMILES: CCCCCCOC(=O)NC(=N)c1ccc(NCc2nc3cc(C(=O)N(CCC(=O)OCC)c4ccccn4)ccc3n2C)cc1 [Dabigatran etexilate, 1-methyl-2-[N-[4-(N-n-hexyloxycarbonylamidino)phenyl]aminomethyl]benzimidazol-5-ylcarboxylic acid-N-(2-pyridyl)-N-(2-ethoxycarbonylethyl)amides]
- ALT or AST >5xULN, rate (300 mg b.i.d.): 1.2 per 100 patient-years
- Adverse Events leading to premature discontinuation, number (300 mg b.i.d.): 21
- Adverse Events leading to premature discontinuation, rate (300 mg b.i.d.): 25.6 per 100 patient-years
- MI, number (300 mg b.i.d.): 0
- Major Bleeds with aspirin, number (300 mg b.i.d.): 6
- Major Bleeds with aspirin, rate (300 mg b.i.d.): 32.7 per 100 patient-years
- Major Bleeds without aspirin, number (300 mg b.i.d.): 4
- Major Bleeds without aspirin, rate (300 mg b.i.d.): 6.3 per 100 patient-years
- Major Bleeds, number (300 mg b.i.d.): 10
- Major Bleeds, rate (300 mg b.i.d.): 12.2 per 100 patient-years
- Major bleeding events (300 mg b.i.d.): 12.2 % per year
- Other MACE, number (300 mg b.i.d.): 1
- Stroke and Systemic Thromboembolism, number (300 mg b.i.d.): 1
- TIA, number (300 mg b.i.d.): 0
- bleeding events (300 mg b.i.d.): more than 12 per 100 years
- ALT or AST >2xULN, number (300 mg q.d.): 3
- ALT or AST >2xULN, rate (300 mg q.d.): 1.5 per 100 patient-years
- ALT or AST >3xULN and Bili >2xULN within 30 days, number (300 mg q.d.): 1
- ALT or AST >3xULN and Bili >2xULN within 30 days, rate (300 mg q.d.): 0.5 per 100 patient-years
- ALT or AST >3xULN, number (300 mg q.d.): 3
- ALT or AST >3xULN, rate (300 mg q.d.): 1.5 per 100 patient-years
- ALT or AST >5xULN, number (300 mg q.d.): 3
- ALT or AST >5xULN, rate (300 mg q.d.): 1.5 per 100 patient-years
- Adverse Events leading to premature discontinuation, number (300 mg q.d.): 19
- Adverse Events leading to premature discontinuation, rate (300 mg q.d.): 9.6 per 100 patient-years
- MI, number (300 mg q.d.): 1
- Major Bleeds with aspirin, number (300 mg q.d.): 2
- Major Bleeds with aspirin, rate (300 mg q.d.): 3.6 per 100 patient-years
- Major Bleeds without aspirin, number (300 mg q.d.): 3
- Major Bleeds without aspirin, rate (300 mg q.d.): 2.1 per 100 patient-years
- Major Bleeds, number (300 mg q.d.): 5
- Major Bleeds, rate (300 mg q.d.): 2.5 per 100 patient-years
- Major bleeding events (300 mg q.d.): 2.5 % per year
- Other MACE, number (300 mg q.d.): 1
- Stroke and Systemic Thromboembolism, number (300 mg q.d.): 5
- TIA, number (300 mg q.d.): 0
- fatal major bleeds, number (300 mg q.d.): 1
- tolerability (300 mg twice daily): not tolerable
- Serious adverse events: cardiac disorders (PETRO-Ex): 22%
- Serious adverse events: cardiac disorders, pts (PETRO-Ex): 80
- Serious adverse events: gastrointestinal disorders (PETRO-Ex): 7.8%
- Serious adverse events: gastrointestinal disorders, pts (PETRO-Ex): 28
- Serious adverse events: infections (PETRO-Ex): 9.4%
- Serious adverse events: infections, pts (PETRO-Ex): 34
- Serious adverse events: nervous system disorders (PETRO-Ex): 9.1%
- Serious adverse events: nervous system disorders, pts (PETRO-Ex): 33
- Major bleeding events (per 100 patient years) (PETRO-Ex, 150 mg b.i.d., without concomitant aspirin): 3.2%*
- LFT abnormalities >3 x-ULN (per 100 patient years) (PETRO-Ex, All doses): 1.7%
- Serious adverse events [1]: 51%
- Serious adverse events, patients [1]: 184
- ALT or AST >2xULN, number (Total (all doses)): 30
- ALT or AST >2xULN, rate (Total (all doses)): 2.9 per 100 patient-years
- ALT or AST >3xULN and Bili >2xULN within 30 days, number (Total (all doses)): 4
- ALT or AST >3xULN and Bili >2xULN within 30 days, rate (Total (all doses)): 0.4 per 100 patient-years
- ALT or AST >3xULN, number (Total (all doses)): 18
- ALT or AST >3xULN, rate (Total (all doses)): 1.7 per 100 patient-years
- ALT or AST >5xULN, number (Total (all doses)): 11
- ALT or AST >5xULN, rate (Total (all doses)): 1.1 per 100 patient-years
- Adverse Events leading to premature discontinuation, number (Total (all doses)): 120
- Adverse Events leading to premature discontinuation, rate (Total (all doses)): 11.5 per 100 patient-years
- MI, number (Total (all doses)): 7
- Major Bleeds with aspirin, number (Total (all doses)): 19
- Major Bleeds with aspirin, rate (Total (all doses)): 8.5 per 100 patient-years
- Major Bleeds without aspirin, number (Total (all doses)): 26
- Major Bleeds without aspirin, rate (Total (all doses)): 3.2 per 100 patient-years
- Major Bleeds, number (Total (all doses)): 44
- Major Bleeds, rate (Total (all doses)): 4.2 per 100 patient-years
- Other MACE, number (Total (all doses)): 11
- Stroke and Systemic Thromboembolism, number (Total (all doses)): 20
- TIA, number (Total (all doses)): 1
- ALT or AST >3xULN and Bili >2xULN within 30 days, number (Total (all doses), listed as dabigatran etexilate): four
- concomitant bilirubin elevation >2xULN within 30 days of transaminase elevations >3xULN (all doses): 0.4 % per year
- elevated liver transaminases, AST or ALT >3xULN (all doses): 1.7 % per year
- fatal intracranial bleeds, number (all doses): Three
- fatal major bleeds, number (all doses): Five
- transaminases (AST or ALT) >5xULN (all doses): 1.1 % per year
- bleeding event risk ratio (concomitant aspirin vs. none): 2.70
- major bleed rate (doses ≦150 mg/day (150 mg q.d. combined with 50 mg b.i.d.)): 3.7 % per year
- bleeding event rate (on concomitant aspirin): 8.5 % per year
- bleeding event rate (without concomitant aspirin): 3.2 % per year
